Test [1] relates to FHC cells. Nature of the test: Cell cycle analysis (BrdU/7-AAD flow cytometry), FHC. Type of test: cell-based. The conditions noted are these: FHC normal fetal colonic mucosa cells. On the procedure:
(§1) For cell cycle analysis, the cells were treated with Α3373 or 5-FU. The cells were labeled with 10 μΜ bromodeoxyuridine (BrdU) for 2 h. Subsequently, the cells were stained with 7-aminoactinomycin D (7-AAD, Invitrogen) and a fluorescein isothiocyanate (FITC)-conjugated anti-BrdU antibody (Invitrogen). Apoptotic cells were detected using an Annexin V-FITC Apoptosis Detection Kit (BD Biosciences). The cells were analyzed using BD FACSAria III (BD Biosciences), and data analysis was performed using FlowJo v10.0 (BD Biosciences).

The subject of test [2] is DLD1 cells. Briefly: Cell cycle analysis (BrdU/7-AAD flow cytometry), DLD1. The format is cell-based. As to the method:
as §1

Test [3] deals with FHC cells. Nature of the test: Apoptosis assay (annexin V flow cytometry), FHC. Type of test: cell-based. On the procedure:
as §1

In test [4] the test system is DLD1 cells. Briefly: Apoptosis assay (annexin V flow cytometry), DLD1. Type of test: cell-based. As to the method: as §1
Test [5] relates to PLD. Briefly: PLD activity assay in DLD1 cells. The format is cell-based. Conditions: compared to unsubstituted congener. As to the method:
(§2) Cells were labeled with [H^3] myristic acid, and PLD activity was assessed by measuring the formation of [H^3] phosphatidylbutanol, which is the product of PLD-mediated transphosphatidylation, in the presence of 1-butanol, as previously described.

In the next test the target is T1, PLD1 (Homo sapiens, UniProt Q13393).
T1 construct: endogenous in cells
T1 sequence (Q13393 1-1074): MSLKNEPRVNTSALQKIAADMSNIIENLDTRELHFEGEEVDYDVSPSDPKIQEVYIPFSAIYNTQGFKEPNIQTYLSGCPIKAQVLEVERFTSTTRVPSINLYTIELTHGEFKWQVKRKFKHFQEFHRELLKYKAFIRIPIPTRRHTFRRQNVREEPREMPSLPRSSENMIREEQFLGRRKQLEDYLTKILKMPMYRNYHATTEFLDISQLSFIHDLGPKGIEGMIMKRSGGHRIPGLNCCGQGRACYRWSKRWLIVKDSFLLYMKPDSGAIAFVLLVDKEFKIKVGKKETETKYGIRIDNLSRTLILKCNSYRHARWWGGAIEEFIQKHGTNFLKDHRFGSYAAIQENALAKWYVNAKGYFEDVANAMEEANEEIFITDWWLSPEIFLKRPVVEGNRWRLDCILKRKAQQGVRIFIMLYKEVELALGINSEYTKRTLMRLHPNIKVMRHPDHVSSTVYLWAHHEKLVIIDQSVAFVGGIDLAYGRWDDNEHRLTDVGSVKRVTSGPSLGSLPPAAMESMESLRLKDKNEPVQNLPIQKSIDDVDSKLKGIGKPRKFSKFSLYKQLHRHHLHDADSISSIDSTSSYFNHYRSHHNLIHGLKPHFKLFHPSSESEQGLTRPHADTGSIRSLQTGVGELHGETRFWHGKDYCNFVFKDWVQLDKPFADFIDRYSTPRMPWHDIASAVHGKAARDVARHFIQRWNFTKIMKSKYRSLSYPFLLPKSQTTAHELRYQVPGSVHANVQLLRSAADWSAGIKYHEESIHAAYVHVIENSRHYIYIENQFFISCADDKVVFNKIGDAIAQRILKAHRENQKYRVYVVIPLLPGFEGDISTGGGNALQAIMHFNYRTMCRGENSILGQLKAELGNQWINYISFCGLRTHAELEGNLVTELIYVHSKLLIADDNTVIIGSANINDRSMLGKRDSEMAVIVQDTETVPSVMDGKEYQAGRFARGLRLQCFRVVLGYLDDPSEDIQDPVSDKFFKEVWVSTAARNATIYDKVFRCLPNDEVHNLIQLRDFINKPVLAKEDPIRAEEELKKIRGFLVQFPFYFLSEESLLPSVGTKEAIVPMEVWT
Nature of the test: Streptavidin pull-down assay, PLD1. The format is binding. The conditions noted are these: 10 μM, various CRC cell lysates. On the procedure: Cells were lysed in passive lysis buffer (Promega). Cell lysates were incubated with biotinylated chemicals (A4333, 10 μM) or biotin (10 μM) at 37 °C for 1 h and treated with streptavidin beads (Thermo Scientific) at 20 °C for 1 h. After removing free biotinylated chemicals by washing with PBS, the samples were subjected to SDS‒PAGE followed by immunoblotting with an antibody against PLD[20].

Test [6] relates to PLD. Nature of the test: PLD activity assay in HCT 116 cells. Type of test: cell-based. Conditions: at 10 μM (Fig. 1c). As to the method:
as §2

Consider `O=c1[nH]cc(F)c(=O)[nH]1` [Compound 5-FU, 5-fluorouracil, reference compound], for which the “cell cycle / S phase in FHC cells, in words” value with FHC cells [1] was “decreased the S phase population”. In the test on DLD1 cells [2], the “cell cycle / proliferation of CRC cells, in words” value is listed as “decreased the S phase population”. In the test on FHC cells [3], the “apoptosis of FHC cells, in words” value is “increased the apoptosis of both CRC and FHC cells”. Further, the “apoptosis of CRC cells, in words” value with DLD1 cells [4] was “increased the apoptosis of both CRC and FHC cells”.
In the case of `O=C(CCCC[C@@H]1SC[C@@H]2NC(=O)N[C@@H]21)NNC(=O)c1ccc2[nH]c(C(=O)Nc3cc(C(F)(F)F)cc(C(F)(F)F)c3)cc2c1` [Compound A4333], the “PLD inhibition, in words” value with PLD [5] is listed as “still potent for PLD inhibition”. Besides, the “interaction with PLD1 (pull-down)” value on PLD1 is “interacted with PLD1”.
`C[C@@H](CN1CCC(n2c(=O)[nH]c3cc(Cl)ccc32)CC1)NC(=O)c1ccc2ccccc2c1` [VU0155069, reference compound] registered a PLD activity remained in the test with PLD [6] of 30.4%.

The values above are taken from PMC9535023, “Inhibition of phospholipase D1 induces immunogenic cell death and potentiates cancer immunotherapy in colorectal cancer” (Experimental & Molecular Medicine, 2022).
